This is an account of results in patent US20060166985A1, “Pyrrolydin-2-one derivatives as inhibitors of thrombin and factor xa” (priority 2002, published 2006).

The test deals with human Thrombin (Homo sapiens, UniProt P00734). Description: In vitro assay for inhibition of Thrombin (chromogenic or fluorogenic assay). The class given is biochemical. As to conditions: Example 2 chromogenic assay, other Examples fluorogenic assay, read-out: thrombin inhibitory Ki. The protocol:
Thrombin inhibitory activity is measured by the ability to inhibit human α-thrombin in a chromogenic assay using N-p-tosyl-gly-pro-lys p-nitroanilide as the chromogenic substrate, or in a fluorogenic assay using Rhodamine 110, bis-(CBZ-L-valyl-L-prolyl-L-arginine amide) as the fluorogenic substrate.
The compound was diluted from a 10 mM stock solution in dimethylsulfoxide at appropriate concentrations. Assay was performed at room temperature using buffer consisting of: 50 mM HEPES, 150 mM NaCl, 5 mM CaCl2, 0.1% PEG, pH 7.4. containing human Thrombin (final conc. of 1 nM). Compound and enzyme were preincubated for 15 min prior to addition of the substrate (final conc. of 100 μM). The reaction was stopped after 30 min with the addition of soybean trypsin inhibitor or H-D-PHE-PRO-ARG-Chloromethylketone. […] To obtain IC50 values the data were analysed using ActivityBase® and XLfit®.
Compounds were diluted from a 10 mM stock solution in dimethylsulfoxide at appropriate concentrations. Assay was performed at room temperature using buffer consisting of: 50 mM HEPES, 150 mM NaCl, 5 mM CaCl2, 0.1% PEG, pH 7.4. containing human Thrombin (final conc. Of 0.2 nM). Compound and enzyme were preincubated for 15 min prior to addition of the substrate (final conc. of 10 μM). The reaction was stopped after 3 hrs with the addition of H-D-PHE-PRO-ARG-Chloromethylketone. […] To obtain IC50 values the data were analysed using ActivityBase® and XLfit®.
One may read the Ki as a dissociation constant, usually derived from enzyme kinetics or from competition with a known ligand. With `CC[C@H](C)[C@@H](C(=O)N1CCOCC1)N1CC[C@H](NS(=O)(=O)CC(O)c2ccc(Cl)cc2)C1=O` (stereo partly drawn) [Example 53, 2-(4-chlorophenyl)-2-hydroxy-N-{(3S)-1-[(1S,2S)-2-methyl-1-(4-morpholinylcarbonyl)butyl]-2-oxo-3-pyrrolidinyl}ethanesulfonamide], the Ki is under 100 nM.

With `CC(CS(=O)(=O)N[C@H]1CCN([C@@H](C)C(=O)N2CCOCC2)C1=O)c1ccc(Cl)s1` (stereo partly drawn) [Example 54, 2-(5-chloro-2-thienyl)-N-{(3S)-1-[(1S)-1-methyl-2-(4-morpholinyl)-2-oxoethyl]-2-oxo-3-pyrrolidinyl}-1-propanesulfonamide], the Ki is under 100 nM.

Turning to `CC[C@H](C)[C@@H](C(=O)N1CCOCC1)N1CC[C@H](NS(=O)(=O)CC(C)c2ccc(Cl)s2)C1=O` (stereo partly drawn) [Example 57, 2-(5-chloro-2-thienyl)-N-{(3S)-1-[(1S,2S)-2-methyl-1-(4-morpholinylcarbonyl)butyl]-2-oxo-3-pyrrolidinyl}-1-propanesulfonamide], the inhibition constant Ki is under 25 nM.

`COC[C@@H](C(=O)N1CCOCC1)N1CC[C@H](NS(=O)(=O)CC(C)c2ccc(Cl)s2)C1=O` (stereo partly drawn) [Example 58, 2-(5-chloro-2-thienyl)-N-{(3S)-1-[(1S)-1-[(methyloxy)methyl]-2-(4-morpholinyl)-2-oxoethyl]-2-oxo-3-pyrrolidinyl}-1-propanesulfonamide]: the inhibition constant (Ki) was under 100 nM.

Turning to `CCOC[C@@H](C(=O)N1CCOCC1)N1CC[C@H](NS(=O)(=O)CC(C)c2ccc(Cl)s2)C1=O` (stereo partly drawn) [Example 59, 2-(5-chloro-2-thienyl)-N-{(3S)-1-[(1S)-1-[(ethyloxy)methyl]-2-(4-morpholinyl)-2-oxoethyl]-2-oxo-3-pyrrolidinyl}-1-propanesulfonamide], the Ki is under 25 nM.

`Cc1noc(C[C@@H](C(=O)N2CCOCC2)N2CC[C@H](NS(=O)(=O)CC(C)c3ccc(Cl)s3)C2=O)n1` (stereo partly drawn) [Example 60, 2-(5-chloro-2-thienyl)-N-{(3S)-1-[(1S)-1-[(3-methyl-1,2,4-oxadiazol-5-yl)methyl]-2-(4-morpholinyl)-2-oxoethyl]-2-oxo-3-pyrrolidinyl}-1-propanesulfonamide]: the inhibition constant Ki is under 50 nM.

`C[C@@H](C(=O)N1CCOCC1)N1CC[C@H](NS(=O)(=O)CC2CCc3cc(Cl)ccc32)C1=O` (stereo partly drawn) [Example 61, 1-(5-chloro-2,3-dihydro-1H-inden-1-yl)-N-{(3S)-1-[(1S)-1-methyl-2-(4-morpholinyl)-2-oxoethyl]-2-oxo-3-pyrrolidinyl}methanesulfonamide]: the Ki was under 100 nM.

Consider `COC[C@@H](C(=O)N1CCOCC1)N1CC[C@H](NS(=O)(=O)CC2CCc3cc(Cl)ccc32)C1=O` (stereo partly drawn) [Example 62, 1-(5-chloro-2,3-dihydro-1H-inden-1-yl)-N-{(3S)-1-[(1S)-1-[(methyloxy)methyl]-2-(4-morpholinyl)-2-oxoethyl]-2-oxo-3-pyrrolidinyl}methanesulfonamide], for which the Ki is under 200 nM.

For the compound `CC[C@H](C)[C@@H](C(=O)N1CCOCC1)N1CC[C@H](NS(=O)(=O)CC2CCc3cc(Cl)ccc32)C1=O` (stereo partly drawn) [Example 63, 1-(5-chloro-2,3-dihydro-1H-inden-1-yl)-N-{(3S)-1-[(1S,2S)-2-methyl-1-(4-morpholinylcarbonyl)butyl]-2-oxo-3-pyrrolidinyl}methanesulfonamide], the Ki is under 50 nM.

Turning to `C[C@@H](C(=O)N1CCOCC1)N1CC[C@H](NS(=O)(=O)CC2COc3cc(Cl)ccc32)C1=O` (stereo partly drawn) [Example 64, 1-(6-chloro-2,3-dihydro-1-benzofuran-3-yl)-N-{(3S)-1-[(1S)-1-methyl-2-(4-morpholinyl)-2-oxoethyl]-2-oxo-3-pyrrolidinyl}methanesulfonamide], the Ki is under 100 nM.

With `COC[C@@H](C(=O)N1CCOCC1)N1CC[C@H](NS(=O)(=O)CC2COc3cc(Cl)ccc32)C1=O` (stereo partly drawn) [Example 65, 1-(6-chloro-2,3-dihydro-1-benzofuran-3-yl)-N-{(3S)-1-[(1S)-1-[(methyloxy)methyl]-2-(4-morpholinyl)-2-oxoethyl]-2-oxo-3-pyrrolidinyl}methanesulfonamide], the Ki was under 100 nM.

As for `C[C@@H](C(=O)N1CCOCC1)N1CC[C@H](NS(=O)(=O)CC2OCc3cc(Cl)ccc32)C1=O` (stereo partly drawn) [Example 66, 1-(5-chloro-1,3-dihydro-2-benzofuran-1-yl)-N-{(3S)-1-[(1S)-1-methyl-2-(4-morpholinyl)-2-oxoethyl]-2-oxo-3-pyrrolidinyl}methanesulfonamide], the inhibition constant Ki is under 50 nM.

With `O=C(C(C1CCOCC1)N1CC[C@H](NS(=O)(=O)CCc2ccc(Cl)s2)C1=O)N1CCOCC1` (stereo partly drawn) [Example 67, 2-(5-chloro-2-thienyl)-N-{(3S)-1-[2-(4-morpholinyl)-2-oxo-1-(tetrahydro-2H-pyran-4-yl)ethyl]-2-oxo-3-pyrrolidinyl}ethanesulfonamide], the Ki was under 200 nM.

Consider `COC[C@@H](C(=O)N1CCOCC1)N1CC[C@H](NS(=O)(=O)C[C@@H]2CCc3cc(Cl)ccc32)C1=O` [Example 68, 1-[(1R)-5-chloro-2,3-dihydro-1H-inden-1-yl]-N-{(3S)-1-[(1S)-1-[(methyloxy)methyl]-2-(4-morpholinyl)-2-oxoethyl]-2-oxo-3-pyrrolidinyl}methanesulfonamide], for which the Ki is under 50 nM.

As for `O=C([C@H](c1ccccc1)N1CC[C@H](NS(=O)(=O)CCc2ccc(Cl)s2)C1=O)N1CCOCC1` [Example 69, 2-(5-chloro-2-thienyl)-N-{(3S)-1-[(1S)-2-(4-morpholinyl)-2-oxo-1-phenylethyl]-2-oxo-3-pyrrolidinyl}ethanesulfonamide], the Ki is under 100 nM.

With `O=C([C@H](Cc1ccc(F)cc1)N1CC[C@H](NS(=O)(=O)CCc2ccc(Cl)s2)C1=O)N1CCOCC1` [Example 70, 2-(5-chloro-2-thienyl)-N-{(3S)-1-[(1S)-1-[(4-fluorophenyl)methyl]-2-(4-morpholinyl)-2-oxoethyl]-2-oxo-3-pyrrolidinyl}ethanesulfonamide], the Ki was under 50 nM.

In the case of `O=C([C@H](Cc1cscn1)N1CC[C@H](NS(=O)(=O)CCc2ccc(Cl)s2)C1=O)N1CCOCC1` [Example 71, 2-(5-chloro-2-thienyl)-N-{(3S)-1-[(1S)-2-(4-morpholinyl)-2-oxo-1-(1,3-thiazol-4-ylmethyl)ethyl]-2-oxo-3-pyrrolidinyl)ethanesulfonamide], the inhibition constant Ki was under 50 nM.

Regarding `O=C([C@H](Cc1cscn1)N1CC[C@H](NS(=O)(=O)CCc2ccc(Cl)cc2)C1=O)N1CCOCC1` [Example 72, 2-(4-chlorophenyl)-N-{(3S)-1-[(1S)-2-(4-morpholinyl)-2-oxo-1-(1,3-thiazol-4-ylmethyl)ethyl]-2-oxo-3-pyrrolidinyl}ethanesulfonamide], the inhibition constant Ki was under 200 nM.

As to `O=C([C@H](c1cccs1)N1CC[C@H](NS(=O)(=O)CCc2ccc(Cl)s2)C1=O)N1CCOCC1` [Example 73, 2-(5-chloro-2-thienyl)-N-{(3S)-1-[(1R)-2-(4-morpholinyl)-2-oxo-1-(2-thienyl)ethyl]-2-oxo-3-pyrrolidinyl}ethanesulfonamide], the Ki was under 50 nM.

As to `O=C([C@H](c1cccs1)N1CC[C@H](NS(=O)(=O)CCc2ccc(Cl)cc2)C1=O)N1CCOCC1` [Example 74, 2-(4-chlorophenyl)-N-{(3S)-1-[(1R)-2-(4-morpholinyl)-2-oxo-1-(2-thienyl)ethyl]-2-oxo-3-pyrrolidinyl}ethanesulfonamide], the Ki was under 100 nM.

Regarding `CCSC[C@@H](C(=O)N1CCOCC1)N1CC[C@H](NS(=O)(=O)CCc2ccc(Cl)s2)C1=O` [Example 75, 2-(5-chloro-2-thienyl)-N-{(3S)-1-[(1R)-1-((ethylthio)methyl]-2-(4-morpholinyl)-2-oxoethyl]-2-oxo-3-pyrrolidinyl}ethanesulfonamide], the Ki is under 50 nM.

Turning to `N#CC[C@@H](C(=O)N1CCOCC1)N1CC[C@H](NS(=O)(=O)CCc2ccc(Cl)s2)C1=O` [Example 76, 2-(5-chloro-2-thienyl)-N-{(3S)-1-[(1S)-1-(cyanomethyl)-2-(4-morpholinyl)-2-oxoethyl]-2-oxo-3-pyrrolidinyl}ethanesulfonamide], the inhibitory constant (Ki) was under 100 nM.

As to `O=C([C@H](Cc1ncno1)N1CC[C@H](NS(=O)(=O)CCc2ccc(Cl)s2)C1=O)N1CCOCC1` [Example 77, 2-(5-chloro-2-thienyl)-N-{(3S)-1-[(1S)-2-(4-morpholinyl)-1-(1,2,4-oxadiazol-5-ylmethyl)-2-oxoethyl]-2-oxo-3-pyrrolidinyl}ethanesulfonamide], the Ki was under 10 nM.

As for `Cc1noc(C[C@@H](C(=O)N2CCOCC2)N2CC[C@H](NS(=O)(=O)CCc3ccc(Cl)s3)C2=O)n1` [Example 78, 2-(5-chloro-2-thienyl)-N-{(3S)-1-[(1S)-1-[(3-methyl-1,2,4-oxadiazol-5-yl)methyl]-2-(4-morpholinyl)-2-oxoethyl]-2-oxo-3-pyrrolidinyl}ethanesulfonamide], the inhibition constant (Ki) is under 25 nM.

With `Cc1noc(C[C@@H](C(=O)N2CCOCC2)N2CC[C@H](N(C)S(=O)(=O)CCc3ccc(Cl)s3)C2=O)n1` [Example 79, 2-(5-chloro-2-thienyl)-N-methyl-N-{(3S)-1-[(1S)-1-[(3-methyl-1,2,4-oxadiazol-5-yl)methyl]-2-(4-morpholinyl)-2-oxoethyl]-2-oxo-3-pyrrolidinyl}ethanesulfonamide], the inhibition constant Ki is under 50 nM.
